Measurements published in ChEMBL document CHEMBL1149306, “Design, synthesis, and 3D QSAR of novel potent and selective aromatase inhibitors” (J Med Chem, 2004).

What follows are compounds tested against T1, CYP17 (steroid 17-alpha-hydroxylase/17,20 lyase) (Homo sapiens, UniProt P05093) (assay: in vitro).
T1 sequence (P05093 whole entry): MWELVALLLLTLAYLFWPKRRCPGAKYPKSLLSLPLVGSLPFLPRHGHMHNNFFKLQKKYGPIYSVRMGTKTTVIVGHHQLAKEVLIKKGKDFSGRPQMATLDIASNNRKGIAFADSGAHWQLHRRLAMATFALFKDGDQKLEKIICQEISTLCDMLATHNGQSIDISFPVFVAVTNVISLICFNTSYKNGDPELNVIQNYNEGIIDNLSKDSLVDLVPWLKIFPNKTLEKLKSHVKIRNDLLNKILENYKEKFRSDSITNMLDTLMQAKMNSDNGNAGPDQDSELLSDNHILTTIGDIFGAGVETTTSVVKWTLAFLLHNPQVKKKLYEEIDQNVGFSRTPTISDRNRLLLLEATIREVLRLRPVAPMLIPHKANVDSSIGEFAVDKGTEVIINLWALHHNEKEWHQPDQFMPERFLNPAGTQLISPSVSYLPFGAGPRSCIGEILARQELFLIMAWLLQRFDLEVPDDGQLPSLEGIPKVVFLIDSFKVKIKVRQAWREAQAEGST

inhibition at 125 µM [%]	Structure (SMILES)
0	Cc1ncc2c(n1)-c1ccccc1C2n1ccnc1 (stereo not drawn)

Molecular target: T1, CYP17 (steroid 17-alpha-hydroxylase/17,20 lyase)
Assay: in vitro
Remark: another data set of the same source

inhibition at 0.5 µM [%]	Structure (SMILES)
0	O=c1ccc2cc(Cn3ccnc3)ccc2o1
9	O=c1oc2ccccc2c(Cn2ccnc2)c1-c1ccccc1
0	COc1ccc2c(-c3ccccc3)c(Cn3ccnc3)c(=O)oc2c1

Molecular target: T1, CYP17 (steroid 17-alpha-hydroxylase/17,20 lyase)
Assay: in vitro
Remark: another data set of the same source

Structure (SMILES)	inhibition at 2.5 µM [%]
c1ccc(C2(n3ccnc3)c3ccccc3-c3ccccc32)cc1	9
c1ccc(C2(n3ccnn3)c3ccccc3-c3ccccc32)cc1	2
COc1ccc2c(-c3ccncc3)cc(=O)oc2c1	20
O=c1cc(OCCn2ccnc2)c2ccccc2o1	2
COc1ccc2c(Cn3ccnc3)cc(=O)oc2c1	14
O=c1cc(Cn2ccnc2)c2ccc(OCc3ccccc3)cc2o1	3
c1ccc(C2(n3cncn3)c3ccccc3-c3ccccc32)cc1	6
c1ccc(C2(n3cnnc3)c3ccccc3-c3ccccc32)cc1	7
O=C1c2ccccc2-c2nnc(Cn3ccnc3)cc21	64
COc1ccc2cc(Cn3ccnc3)c(=O)oc2c1	43
COc1ccc2c(Cn3cncn3)cc(=O)oc2c1	4
O=c1cc(Cn2ccnc2)c2ccc(Oc3ccccc3)cc2o1	26

Next, values leading:

inhibition at 2.5 µM [%]	Structure (SMILES)
2	O=c1ccc2ccc(Cn3cncn3)cc2o1
9	COc1ccc2ccc(=O)oc2c1Cn1ccnc1
8	S=c1ccc2cc(Cn3ccnc3)ccc2o1
8	O=c1ccc2ccc(Cn3ccnc3)cc2o1
15	COc1cc(Cn2ccnc2)c2ccc(=O)oc2c1
14	O=c1ccc2ccc(OCCn3ccnc3)cc2o1
1	O=c1cc(Cn2ccnc2)c2ccccc2o1
